# The RepoRT retention time repository
# Experiment: HILIC, Waters ACQUITY UPLC BEH Amide, 100 × 2.1 mm, 1.7 µm; A: water + 0.125% formic acid + 10 mM ammonium formate; B: 5% water + 95% acetonitrile + 0.125% formic acid + 10 mM ammonium formate; gradient (min/%B) 0/100 2/100 7.7/70 9.5/40 10.25/30 12.75/100 17/100
# Conditions: stereoisomer not certain
row,Compound,LC retention time [min]
1,C=C1CC2C(CCC3(C)C(=O)CCC23)C2(C)C=CC(=O)C=C12 (stereo not drawn) [Exemestane],0.98
2,"CC(O)C(O)C1=Nc2c(nc(N)[nH]c2=O)NC1 (stereo not drawn) [7,8-Dihydrobiopterin]",7.18
3,COC(=O)CN [Methylglycinate],5.29
4,CC12CCC3c4ccc(O)cc4CCC3C1CC(OC1OC(C(=O)O)C(O)C(O)C1O)C2O (stereo not drawn) [16-Glucuronide-estriol],6.49
5,COC(=O)CC(O)(CCCC(C)(C)O)C(=O)OC1C(OC)=CC23CCCN2CCc2cc4c(cc2C13)OCO4 (stereo not drawn) [Homoharringtonine],3.24
6,CCOC(=O)OC1(C(=O)OCCl)CCC2C3CCC4=CC(=O)C=CC4(C)C3C(O)CC21C (stereo not drawn) [Loteprednol Etabonate],0.97
7,O=CCC(O)C(O)CO (stereo not drawn) [2-Deoxyribose],1.42
8,NC(N)=NOCCC(N)C(=O)O (stereo not drawn) [Canavanine],9.42
9,CCC1C(=O)OCC1Cc1cncn1C (stereo not drawn) [Pilocarpine],2.23
10,COc1c2occc2cc2ccc(=O)oc12 [Xanthotoxin],1.04
11,CCC(=O)OC(CC(=O)[O-])C[N+](C)(C)C (stereo not drawn) [Propionylcarnitine],6.41
12,CC(=O)CCCCn1cnc2c1c(=O)n(C)c(=O)n2C [Lomifylline],1.09
13,CCCCCCCCCCCCCCCC(=O)OC(CO)CO [2-Palmitoylglycerol],0.99
14,"Nc1ncnc2c1ncn2C1CC2OP(=O)(O)OCC2O1 (stereo not drawn) [3',5'-Cyclic dAMP]",7.29
15,CC12CCC3C4CCC(=O)C=C4CCC3C1CCC2O (stereo not drawn) [Nandrolone],1.06
16,CCCCCC=CCC=CCCCCCCCC(=O)OC(CC(=O)[O-])C[N+](C)(C)C (stereo not drawn) [Linoleoylcarnitine],3.1
17,Nc1ncnc2nc[nH]c12 [Adenine],4.71
18,NC(Cn1ccc(=O)[nH]c1=O)C(=O)O (stereo not drawn) [Willardiine],8.72
19,CN=C1CN(O)C(c2ccccc2)=c2cc(Cl)ccc2=N1 [Chlordiazepoxide],1.35
20,COc1cc2nc(N3CCN(C(=O)C4CCCO4)CC3)nc(N)c2cc1OC (stereo not drawn) [Terazosin],4.66

row,Compound,LC retention time [min]
1,NCCP(=O)(O)O [2-Aminoethylphosphonic acid],9.39
2,CC(NC(=O)C(N)CCCN=C(N)N)C(=O)O (stereo not drawn) [Arg-Ala],9.66
3,CN1C2CCC1CC(OC(=O)C(CO)c1ccccc1)C2 (stereo not drawn) [Atropine],4.32
4,CC(C)CC(N)C(=O)NC(CCCN=C(N)N)C(=O)O (stereo not drawn) [Leu-Arg],8.86
5,Cc1nnc2n1-c1ccc(Cl)cc1C(c1ccccc1)=NC2 [Alprazolam],1.34
6,CN1C2CCC1C(C(=O)O)C(O)C2 (stereo not drawn) [Ecgonine],7.61
7,Nc1nc(N)nc(-c2cc(Cl)ccc2Cl)n1 [Irsogladine],1.25
8,CN1C2CC(OC(=O)C(CO)c3ccccc3)CC1C1OC12 (stereo not drawn) [Scopolamine],3.75
9,O=c1[nH]c(=O)n(C2CCCO2)cc1F (stereo not drawn) [Tegafur],1.22
10,COC1=C(OC)C(=O)C(CCCCCCCCCCO)=C(C)C1=O [Idebenone],0.96
11,CCCC=CC=O [2-Hexenal],1.39
12,CNC(=O)Oc1ccc2c(c1)C1(C)CCN(C)C1N2C (stereo not drawn) [Physostigmine],3.17
13,CCN(CC)CCOC(=O)C(O)(c1ccccc1)c1ccccc1 [Benactyzine],2.16
14,CC(=O)OC1(C(C)=O)CCC2C3C=C(C)C4=CC(=O)CCC4(C)C3CCC21C (stereo not drawn) [Megestrol Acetate],0.96
15,c1cncc(C2CCCN2)c1 (stereo not drawn) [Nornicotine],5.98
16,CC(=O)OC(CC(=O)[O-])C[N+](C)(C)C (stereo not drawn) [Acetylcarnitine],7.19
17,COC1C=COC2(C)Oc3c(C)c(O)c4c(O)c(c5c(nc6cc(C)ccn65)c4c3C2=O)NC(=O)C(C)=CC=CC(C)C(O)C(C)C(O)C(C)C(OC(C)=O)C1C (stereo not drawn) [Rifaximin],1.18
18,O=C1CN=C(c2ccccc2)c2cc(Cl)ccc2N1CC1CC1 [Prazepam],1.07
19,O=C(O)CCCCCO [6-Hydroxycaproic acid],1.34

# The remaining lines, values ahead:
row,LC retention time [min],Compound
1,6.99,Cn1c(=N)ccn(C2OC(CO)C(O)C2O)c1=O (stereo not drawn) [3-Methylcytidine]
2,7.42,NC(CC(=O)O)c1ccc(O)cc1 (stereo not drawn) [3-Amino-3-(4-hydroxyphenyl)propionic acid]
3,10.2,CCCC(=O)O [Butanoic acid]
4,1.19,Oc1ccc(C2COc3cc(O)ccc3C2)cc1 (stereo not drawn) [Equol]
5,7.4,NCc1[nH]cc(CCC(=O)O)c1CC(=O)O [Porphobilinogen]
6,9.53,NC(N)=NCCCC(N)C(=O)O (stereo not drawn) [Arginine]
7,2.94,CC(C)CC(=O)NCC(=O)O [N-Isovalerylglycine]
8,8.03,CC(=O)NCCCCC(N)C(=O)O (stereo not drawn) [N-epsilon-Acetyllysine]
9,9.74,CC(OP(=O)(O)O)C(N)C(=O)O (stereo not drawn) [o-Phosphothreonine]
10,4.64,OCC1OC(Oc2cc(O)cc(C=Cc3ccc(O)cc3)c2)C(O)C(O)C1O (stereo not drawn) [trans-Piceid]
11,0.99,CC(=O)CC(c1ccccc1)c1c(O)c2ccccc2oc1=O (stereo not drawn) [Warfarin]
12,1.35,COc1ccc2nc(S(=O)Cc3ncc(C)c(OC)c3C)[nH]c2c1 (stereo not drawn) [Esomeprazole]
13,8.85,NC(CCC(=O)O)C(=O)O (stereo not drawn) [Glutamic acid]
14,2.49,CCCN1CCCCC1C(=O)Nc1c(C)cccc1C (stereo not drawn) [Ropivacaine]
15,0.98,O=C1Nc2ccc(Cl)cc2C(C#CC2CC2)(C(F)(F)F)O1 (stereo not drawn) [Efavirenz]
16,2.95,O=C(O)CNC(=O)C=Cc1ccccc1 [N-Cinnamoylglycine]
17,1.51,O=C(OC1C(Oc2ccccc2COC(=O)C2(O)C=CCCC2=O)OC(CO)C(O)C1O)c1ccccc1 (stereo not drawn) [Tremulacin]
18,5.9,Nc1ccnc(=O)[nH]1 [Cytosine]
19,2.31,CN(C)CCCN1c2ccccc2CCc2ccc(Cl)cc21 [Clomipramine]
20,2.61,CC(=O)NC(Cc1ccccc1)C(=O)O (stereo not drawn) [N-Acetylphenylalanine]
21,2.99,O=C(O)C=Cc1ccc(Cn2ccnc2)cc1 [Ozagrel]
22,2.84,CCCCCN=C(N)NN=Cc1c[nH]c2ccc(OC)cc12 [Tegaserod]
23,1.01,CCOc1cc(CC(=O)NC(CC(C)C)c2ccccc2N2CCCCC2)ccc1C(=O)O (stereo not drawn) [Repaglinide]
24,8.73,NC(=O)NCCCC[C@H](N)C(=O)O [L-Homocitrulline]
25,1.12,COc1ccc(C2CNC(=O)C2)cc1OC1CCCC1 (stereo not drawn) [Rolipram]
26,8.2,NC(CCC(=O)O)C(=O)NC(Cc1ccccc1)C(=O)O (stereo not drawn) [Glu-Phe]
27,7.67,CCC(C)C(NC(=O)CN)C(=O)O (stereo not drawn) [Gly-Ile]

row,LC retention time [min],Compound
1,1.19,CN1CC(=O)N2C(Cc3c([nH]c4ccccc34)C2c2ccc3c(c2)OCO3)C1=O (stereo not drawn) [Taldalafil]
2,2.87,O=c1ccn(C2OC(CO)CC2O)c(=O)[nH]1 (stereo not drawn) [3-Deoxyuridine]
3,2.85,Clc1cccc(Cl)c1NC1=NCCN1 [Clonidine]
4,1.09,CC(C(=O)O)c1ccc(CC2CCCC2=O)cc1 (stereo not drawn) [Loxoprofen]
5,0.95,CCOC(=O)C1=C(C)NC(C)=C(C(=O)OC)C1c1cccc([N+](=O)[O-])c1 (stereo not drawn) [Nitrendipine]
6,2.25,O=C(O)C(O)Cc1c[nH]c2ccccc12 (stereo not drawn) [Indolelactic acid]
7,1.26,COc1ccc(C=CC(=O)Nc2ccccc2C(=O)O)cc1OC [Tranilast]
8,4.62,COc1ccc2c3c1OC1CC(O)C=CC31CCN(C)C2 (stereo not drawn) [Galanthamine]
9,1.19,COc1cc(-c2ccc(=O)[nH]n2)ccc1OC(F)F [Zardaverine]
10,2.84,CC(C)C(=O)C(=O)O [Ketoisovaleric acid]
11,2.16,O=C(O)c1cccnc1C(=O)O [Quinolinic acid]
12,7.67,CNC(C)C(=O)O (stereo not drawn) [N-Methylalanine]
13,7.07,CC(NC(CCc1ccccc1)C(=O)O)C(=O)N1CCCC1C(=O)O (stereo not drawn) [Enalaprilat]
14,1.3,CC(C)=CCCC(C)=CC(=O)O [Geranic acid]
15,1.07,O=C1C(c2c(O)[nH]c3ccccc23)=Nc2ccccc21 [Indarubicin]
16,1.34,O=C(c1ccccc1)c1c(O)cc(O)cc1O [Phlorobenzophenone]
17,3.45,CCOC(=O)c1ccc(OC(=O)CCCCCN=C(N)N)cc1 [Gabexate]
18,4.01,O=C(O)c1cccnc1 [Nicotinic acid]
19,8.18,CC(=O)N[C@@H](CCC(N)=O)C(=O)O [N-Acetyl-L-glutamine]
20,1.15,Oc1cc(O)cc(O)c1 [Phloroglucinol]
21,2.01,O=C(O)c1cc(N=Nc2ccc(S(=O)(=O)Nc3ccccn3)cc2)ccc1O [Sulfasalazine]
22,4.48,OCc1ccccc1OC1OC(CO)C(O)C(O)C1O (stereo not drawn) [Salicin]
23,9.6,NCCCC(N)C(=O)O (stereo not drawn) [Ornithine]
24,3.48,O=C(CCCN1CC=C(n2c(=O)[nH]c3ccccc32)CC1)c1ccc(F)cc1 [Droperidol]
25,6.09,CC1OC(OCC2OC(Oc3c(-c4ccc(O)cc4)oc4cc(O)cc(O)c4c3=O)C(O)C(O)C2O)C(O)C(O)C1O (stereo not drawn) [Kaempferol-3-O-rutinoside]
26,4.31,CNS(=O)(=O)Cc1ccc2[nH]cc(CCN(C)C)c2c1 [Sumatriptan]
27,1.11,CCOC(=O)N1CCC(=C2c3ccc(Cl)cc3CCc3cccnc32)CC1 [Loratadine]
